From patent US20100021555A1, “Compositions containing high omega-3 and low saturated fatty acid levels” (priority 2004, published 2010)
Values belong to the compound of their own block, whether it stands above or below them.

Columns and labels:
dairy cows = details: cited from earlier work
bovine hepatocytes = bovine hepatocytes supplemented in vitro; cited from earlier work
rumen microorganisms = details: in vitro; cited from earlier work
lactating dairy cows = assay: Pilot supplementation study in lactating dairy cows: milk fatty acids by GC; type: in vivo, Friesian dairy cows
Excerpt: (§1) Ethical approval was obtained from the University of Auckland Animal Ethics Committee to undertake an pilot supplementation study. The study involved supplementing the diets of four Friesian dairy cows with single daily dose of 40 and 160 of ethyl-eicospaentaenoic acid (>98% purity) for nine days. Cows were divided into a high-to-low dose (HTLD) group (n=2) with animals supplemented with 160 grams of EPA at day one with the dose decreasing by 15 grams each day to reach 40 grams at day nine and a low-to-high dose (LTHD) group (n=2) with animals supplemented with 40 grams on day one the dose increasing by 15 grams each day to reach 160 grams at day nine. Feeding and milk sampling was undertaken between 19 and 29 August 2004 at a dairy farm in West Aucldand under the supervision of a supervising veterinarian with experience in caring for the herd. Supplements were given by drenching gun once daily in the morning subsequent to milking. Prior to supplementation each day duplicate 50 ml samples of milk were collected from each animal and stored in 100 ml polyethylene containers in a temperature controlled minus 20 deg C. freezer within one hour of collection. Milk samples were thawed and fatty acids extracted and prepared for analysis. Milkfat was methylated by dissolving in hexane and reaction with 2 molar KOH methanol. 20 milligrams of fat dissolved in 2 mls in N-Hexane then 20 micro-litres of 2 molar KOH methanol was added left to stand for 3 seconds and vortexed vigorously for 30 seconds. The mixture was then allowed to stand for 6 minutes before being neutralized to methyl red with 2 molar HCl in water before being vortexed again and centrifuged (modified method from agilent website also reported in Terry Knight publications) Knight T. W., et al., New Zealand Journal Of Agricultural Research 47:3,: 287-297 SEP (2004). An aliquot of hexane was then taken and analysed by GCFID 6890 (Agilent Corp) with 105 meter 0.25 mm RTX2330 90% bis cyanoprofile column (Restek) and 0.25 micron film thickness. Fatty acids were identified by retention time in comparison with a 37-component mixture (Suplco). Peak areas were corrected for peak response using theoretical response factors (AOCS reference). Results were reported as area under curve.
A permutation based method of statistical analysis was used to assess FA baseline composition with reference to a reference baseline derived from population of four thousand one hundred NZ Fresian dairy cows. Each fatty acid peak measured in the feeding trial was logged (log base 2), and had the day 0 (baseline) measurement subtracted to report a change from baseline at each time point. Significance of the changes in four-cow and two-cow means was tested by randomly selecting many groups of two or four cows from the herd of 4100 animal reference dataset and comparing the feeding trial results against the mean of logged measurements from the larger reference population. This produced baseline distributions for each group size which were centered at zero to match the baseline centered means from the animals in the feeding trial. Significance thresholds were then adjusted for the number of fatty acid peaks being investigated, and the number of measurements taken.

delta-9-desaturase = assay: Milkfat substrate/product ratios (SFA : monounsaturated counterpart), proxy for delta-9-desaturase activity; type: in vivo, Friesian dairy cows; details: for C:18:C18:1 ratio in milkfat: baseline 0.49; for C:10:C10:1 ratio in milkfat: baseline 12.66; for C:14:C14:1 ratio in milkfat: baseline 14.93; for C:16:C16:1 ratio in milkfat: baseline 17.40
Excerpt: as §1
Saturated Fatty Acids: A reduction in dietary amounts of certain saturated fatty acids (SFAs), including in particular the major milk fatty acid C16:0, a has been recommended by health experts (WHO Technical Report Series 916, WHO Geneva (2003)). Under normal circumstances about 50% of dietary C16:0 is taken up by the mammary gland. […] This decrease in milkfat C16:0 is unlikely to be explained by altered feeding behavior during the study given corresponding changes were not observed in other SFAs. In order to investigate the contribution of further metabolism of C16:0 in the mammary gland to palmitoleic acid (C16:1) we compared substrate/product ratios in milkfat for a number of SFAs and their monounsaturated fatty acid counterparts. These ratios are considered to be a proxy measure for the activity of the delta-9-desaturase activity enzyme. (see Table 1 below).

Compound: CC/C=C\C/C=C\C/C=C\CCCCCCCC(=O)O [ALA, alpha linolenic acid]
EPA in milkfat (dairy cows; duodenal infusion of 500 grams per day of ALA): no concomitant increase
level of ALA in milkfat (dairy cows; duodenal infusion of 500 grams per day): 14%

Compound: CC/C=C\C/C=C\C/C=C\C/C=C\C/C=C\CCCC(=O)O [EPA, 5,8,11,14,17,-eicosapentaenoic acid (20:5n-3)]
oxidation of C16:0 (bovine hepatocytes): significant increase
biohydrogenation of linoleic (LA C18:2) and alpha-linolenic (ALA C18:3) acid (rumen microorganisms): inhibition

day by which milk DPA rose significantly from baseline (lactating dairy cows; HTLD group): three
day by which milk EPA rose significantly from baseline (lactating dairy cows; HTLD group): two
EPA as a percentage of total fatty acids in milk, peak (lactating dairy cows; HTLD group (160 to 40 g/day), peak at day five): 1.55 % TFA
DPA as a percentage of total fatty acids in milk, peak (lactating dairy cows; HTLD group, peak at day six): 0.41 % TFA
day by which milk DPA rose significantly from baseline (lactating dairy cows; LTHD group): seven
day by which milk EPA rose significantly from baseline (lactating dairy cows; LTHD group): five
EPA as a percentage of total fatty acids in milk, peak (lactating dairy cows; LTHD group (40 to 160 g/day), peak at day nine): 1.29 % TFA
DPA as a percentage of total fatty acids in milk, peak (lactating dairy cows; LTHD group, peak at day eleven): 0.38 % TFA
DHA in milk (lactating dairy cows; undetectable at baseline, throughout the study): remained unchanged
C:10:C10:1 ratio, % of baseline (delta-9-desaturase; Day Eleven): 106.4 % of baseline
C:14:C14:1 ratio, % of baseline (delta-9-desaturase; Day Eleven): 110.6 % of baseline
C:16:C16:1 ratio, % of baseline (delta-9-desaturase; Day Eleven): 113.4 % of baseline
C:18:C18:1 ratio, % of baseline (delta-9-desaturase; Day Eleven): 98 % of baseline
C:18:C18:1 ratio in milkfat (delta-9-desaturase; Day Eleven): 0.48
C:10:C10:1 ratio in milkfat (delta-9-desaturase; Day Eleven): 13.46
C:14:C14:1 ratio in milkfat (delta-9-desaturase; Day Eleven): 16.51
C:16:C16:1 ratio in milkfat (delta-9-desaturase; Day Eleven): 19.67
C:10:C10:1 ratio, % of baseline (delta-9-desaturase; Day Five): 82.5 % of baseline
C:14:C14:1 ratio, % of baseline (delta-9-desaturase; Day Five): 83.3 % of baseline
C:16:C16:1 ratio, % of baseline (delta-9-desaturase; Day Five): 90.6 % of baseline
C:18:C18:1 ratio, % of baseline (delta-9-desaturase; Day Five): 65.3 % of baseline
C:10:C10:1 ratio in milkfat (delta-9-desaturase; Day Five, across both groups): 10.45
C:18:C18:1 ratio in milkfat (delta-9-desaturase; Day Five): 0.32
C:14:C14:1 ratio in milkfat (delta-9-desaturase; Day Five): 12.44
C:16:C16:1 ratio in milkfat (delta-9-desaturase; Day Five): 15.76
Compound: CC/C=C\C/C=C\C/C=C\C/C=C\C/C=C\CCCC(=O)OCC [ethyl-eicospaentaenoic acid]
milkfat stearic acid (C18:0) (lactating dairy cows; already significant by day three): dramatic reduction
maximum reduction of % TFA C16:0 in milk (lactating dairy cows; day nine, across both groups): 15.44 % of baseline levels
% TFA C16:0 in milk (lactating dairy cows; day nine, across both groups, baseline 36.78): 31.1 % TFA
CLA in milk, increase over baseline levels at maximum (lactating dairy cows; in vivo): 375%
CLA in milk, maximum level (lactating dairy cows; in vivo): 4.2 % of total fatty acids
CLA in milk, mean increase over baseline levels (lactating dairy cows; mean): 274%
